Reference: publication PMC7377239, “Cardiovascular Effects of Polychlorinated Biphenyls and Their Major Metabolites” (Environmental Health Perspectives, 2020)
Counter-ions that a name gives are not always drawn.

Test system: iPSC-CMs, iPSC-ECs and HUVECs phenotypes
Test: ToxPi 2.0 integration of POD values and physicochemical descriptors
Design: species or system human
Settings: ToxPi-scaled (0-1) score; for huvec.cyto.24hr / huvec.mito.24hr / huvec.mitoint.24hr / huvec.nma.24hr / huvec.tc.24hr / huvec.mtl.18hr / huvec.tlps.18hr / huvec.tta.18hr / huvec.ttl.18hr: HUVECs; for huvec.mtl.18hr / huvec.tlps.18hr / huvec.tta.18hr / huvec.ttl.18hr / endo.mtl.18hr / endo.tlps.18hr / endo.tta.18hr / endo.ttl.18hr: tube formation; for cm.amp.avg.90min / cm.amp.cv.90min / cm.bpm.90min / cm.cam.90min / cm.decay.rise.90min / cm.mii.90min / cm.mito.90min / cm.spacing.cv.90min / cm.tc.90min / cm.amp.avg.24hrs / cm.amp.cv.24hrs / cm.bpm.24hrs / cm.cam.24hrs / cm.decay.rise.24hrs / cm.mii.24hrs / cm.mito.24hrs / cm.spacing.cv.24hrs / cm.tc.24hrs: iPSC cardiomyocytes; for endo.cyto.24hr / endo.mito.24hr / endo.mitoint.24hr / endo.nma.24hr / endo.tc.24hr / endo.mtl.18hr / endo.tlps.18hr / endo.tta.18hr / endo.ttl.18hr: iPSC endothelial cells
From the text: Phenotypic responses were quantitatively assessed using concentration–response modeling as detailed elsewhere ([Sirenko et al. 2017]). Briefly, phenotypic readouts were normalized to vehicle controls and fit to a four-parameter logistic model in R studio software (version 3.1.1; R Development Core Team). Following EPA guidance on dose–response modeling, a cutoff of one standard deviation across means of vehicle control (i.e., 0.5% vol/vol DMSO in cell culture media) wells was applied to determine the point-of-departure (POD) values ([U.S. EPA 2012]). In the absence of a concentration–response, the highest tested concentration (i.e., 100μM ) was assigned as “no observable adverse effect level.” The concentration–response assessment R script, as well as templates for vehicle and concentration–response data, are available as a supplement to Sirenko et al. ([2017]). The ability of physicochemical properties to predict differences in PODs were evaluated by multiregression and mixed-effects modeling using R.
POD values were then integrated using ToxPi 2.0 ([Marvel et al. 2018]) software. In ToxPi, each slice is representative of cell type– and time-point–specific phenotypes. The area of each slice is proportional to the relative value (e.g., bioactivity or physicochemical descriptor value) of the chemical within the data set. ToxPi scores were used to rank PCBs and their metabolites according to their overall bioactivity and to determine variability in total observable biological responses and chemical characteristics for each major metabolite class and chlorination status (mono-, hexa-chlorinated). Additional visualizations such as dumbbell and principal components analysis plots were generated in R Studio (version 1.1.456; R version 3.5.1; R Development Core Team) using the ggplot2 package.

SMILES | huvec.cyto.24hr | huvec.mito.24hr | huvec.mitoint.24hr | huvec.nma.24hr | huvec.tc.24hr | huvec.mtl.18hr | huvec.tlps.18hr | huvec.tta.18hr | huvec.ttl.18hr | cm.amp.avg.90min | cm.amp.cv.90min | cm.bpm.90min | cm.cam.90min | cm.decay.rise.90min | cm.mii.90min | cm.mito.90min | cm.spacing.cv.90min | cm.tc.90min | cm.amp.avg.24hrs | cm.amp.cv.24hrs | also measured
Oc1ccc(O)c(-c2ccc(Cl)cc2)c1 [2',5'-diOH-PCB 3, 4-Chloro-2′,5′-dihydroxybiphenyl] | 0.7001 | 0.7865 | 0.6634 | 0.309 | 0.7001 | 0.9783 | 0.7891 | 0.8497 | 0.663 | 0.2608 | 0.5898 | 0.1802 | 0.4648 | 0.2325 | 0.9473 | 0.8423 | 0.3549 | 0.4501 | 0.4147 | 0.7626 | cm.bpm.24hrs: 0.7331; cm.cam.24hrs: 0.5361; cm.decay.rise.24hrs: 0.935; cm.mii.24hrs: 1; cm.mito.24hrs: 1; cm.spacing.cv.24hrs: 1; cm.tc.24hrs: 0.9136; endo.cyto.24hr: 0.4719; endo.mito.24hr: 0.4719; endo.mitoint.24hr: 0.1112; endo.nma.24hr: 0.3504; endo.tc.24hr: 0.5028; endo.mtl.18hr: 0.5595; endo.tlps.18hr: 0.8388; endo.tta.18hr: 0.3744; endo.ttl.18hr: 0.3867
Oc1cccc(-c2ccc(Cl)cc2)c1 [3'-OH-PCB 3] | 0.4672 | 0.5506 | 0.1749 | 1 | 0.4672 | 1 | 0.8699 | 0.6576 | 0.5155 | 0.6872 | 0.2705 | 0.8835 | 0.7562 | 0.4777 | 0.3912 | 0.7743 | 0.07935 | 0.7836 | 0.4464 | 0.3812 | cm.bpm.24hrs: 0.4553; cm.cam.24hrs: 0.2634; cm.decay.rise.24hrs: 0.8154; cm.mii.24hrs: 0.3889; cm.mito.24hrs: 0.4239; cm.spacing.cv.24hrs: 0.8008; cm.tc.24hrs: 0.4277; endo.cyto.24hr: 0.1365; endo.mito.24hr: 0.1365; endo.mitoint.24hr: 0; endo.nma.24hr: 0.4106; endo.tc.24hr: 0.1112; endo.mtl.18hr: 0.5876; endo.tlps.18hr: 0.7333; endo.tta.18hr: 0.4844; endo.ttl.18hr: 0.4865
O=S(=O)(O)Oc1cccc(-c2ccc(Cl)cc2)c1 [3'-PCB 3 sulfate] | 0 | 0 | 0 | 0 | 0 | 0.4173 | 0 | 0 | 0 | 0 | 0 | 0.07423 | 0 | 0 | 0.03988 | 0 | 0 | 0 | 0 | 0 | cm.bpm.24hrs: 0; cm.cam.24hrs: 0; cm.decay.rise.24hrs: 0; cm.mii.24hrs: 0; cm.mito.24hrs: 0; cm.spacing.cv.24hrs: 0; cm.tc.24hrs: 0; endo.cyto.24hr: 0; endo.mito.24hr: 0; endo.mitoint.24hr: 0; endo.nma.24hr: 0; endo.tc.24hr: 0; endo.mtl.18hr: 0.5389; endo.tlps.18hr: 0.1522; endo.tta.18hr: 0.1963; endo.ttl.18hr: 0.2248
Clc1cccc(-c2cccc(Cl)c2)c1 [PCB 11, 3,3′-Dichlorobiphenyl] | 0.2265 | 0.2773 | 0.5099 | 0.3029 | 0.2265 | 0 | 0.1652 | 0 | 0 | 0.6423 | 0.3673 | 0.1538 | 0.6939 | 0.6828 | 0.779 | 0.7948 | 0.06972 | 0.7336 | 0.07152 | 0.5878 | cm.bpm.24hrs: 0.1537; cm.cam.24hrs: 0.1401; cm.decay.rise.24hrs: 0.254; cm.mii.24hrs: 0.6195; cm.mito.24hrs: 0.2384; cm.spacing.cv.24hrs: 0.3725; cm.tc.24hrs: 0.241; endo.cyto.24hr: 0; endo.mito.24hr: 0; endo.mitoint.24hr: 0; endo.nma.24hr: 0; endo.tc.24hr: 0; endo.mtl.18hr: 0; endo.tlps.18hr: 0; endo.tta.18hr: 0; endo.ttl.18hr: 0
Clc1ccc(Cl)c(-c2c(Cl)ccc(Cl)c2Cl)c1 [PCB 95, 2,2′,3,5′,6-pentachlorobiphenyl] | 0.9485 | 1 | 0.5155 | 0.5037 | 0.9485 | 0.5568 | 0 | 0 | 0 | 0.3275 | 0.6707 | 0.7438 | 0.4148 | 0.1633 | 0 | 0.3775 | 0.2342 | 0.3895 | 0 | 0.2056 | cm.bpm.24hrs: 1; cm.cam.24hrs: 0.3236; cm.decay.rise.24hrs: 0.2316; cm.mii.24hrs: 0.3974; cm.mito.24hrs: 0.5198; cm.spacing.cv.24hrs: 0.1862; cm.tc.24hrs: 0.5603; endo.cyto.24hr: 0; endo.mito.24hr: 0; endo.mitoint.24hr: 0; endo.nma.24hr: 0; endo.tc.24hr: 0; endo.mtl.18hr: 0.07537; endo.tlps.18hr: 0.09893; endo.tta.18hr: 0.06557; endo.ttl.18hr: 0.054
Clc1ccc(Cl)c(-c2cc(Cl)ccc2Cl)c1 [PCB 52, 2,2′,5,5′-tetrachlorobiphenyl] | 0.5178 | 0.613 | 0.5572 | 0.3829 | 0.5178 | 0 | 0 | 0 | 0 | 0.5597 | 0.1687 | 0.3203 | 0.422 | 0.1841 | 0.8432 | 0.3815 | 0.1566 | 0.3874 | 0.3455 | 0.4979 | cm.bpm.24hrs: 0.3481; cm.cam.24hrs: 0.3478; cm.decay.rise.24hrs: 0.2921; cm.mii.24hrs: 0.2822; cm.mito.24hrs: 0.5634; cm.spacing.cv.24hrs: 0.2305; cm.tc.24hrs: 0.578; endo.cyto.24hr: 0; endo.mito.24hr: 0; endo.mitoint.24hr: 0; endo.nma.24hr: 0; endo.tc.24hr: 0; endo.mtl.18hr: 0.02365; endo.tlps.18hr: 0; endo.tta.18hr: 0; endo.ttl.18hr: 0
Clc1ccc(-c2ccccc2)cc1 [PCB 3, 4-chlorobiphenyl] | 0 | 0 | 0 | 0 | 0 | 0.3075 | 0 | 0.9931 | 0.7484 | 0.3083 | 0.6784 | 0.3832 | 0.5745 | 0 | 1 | 0.6328 | 1 | 0.6608 | 0.05114 | 0.2083 | cm.bpm.24hrs: 0.1867; cm.cam.24hrs: 0.3496; cm.decay.rise.24hrs: 0.3179; cm.mii.24hrs: 0.587; cm.mito.24hrs: 0.5833; cm.spacing.cv.24hrs: 0.1653; cm.tc.24hrs: 0.6127; endo.cyto.24hr: 0; endo.mito.24hr: 0; endo.mitoint.24hr: 0; endo.nma.24hr: 0; endo.tc.24hr: 0; endo.mtl.18hr: 0; endo.tlps.18hr: 0; endo.tta.18hr: 0; endo.ttl.18hr: 0
